# Assay results: ChEMBL document CHEMBL4806970, “Degraders of cyclin-dependent kinase 12 (cdk12) and uses thereof” (2020)
# Several values for one entry are separate records, joined by “and”; a condition that tells them apart may be missing. Equal entries are not always repeated. Activity calls are given as the source filed them. No cut-off for these calls is given here.
# Key:
# [1] = target: T1, Protein cereblon/Cyclin-dependent kinase 12 (Homo sapiens) (UniProt Q9NYV4+Q96SW2); test: PROTAC activity at CRBN/CDK12 in human Jurkat cells assessed as induction of CDK12 degradation at 100 nM incubated for 6 hrs by western blot analysis; format: cell-based
# [2] = target: T1, Protein cereblon/Cyclin-dependent kinase 12 (Homo sapiens); test: PROTAC activity at CRBN/CDK12 in human Jurkat cells assessed as induction of CDK12 degradation up to 500 nM incubated for 6 hrs by western blot analysis; format: cell-based; conditions: dose nM <=500, time 6.0 hrs
# [3] = AUClast in C57BL/6 mouse at 2 mg/kg, iv measured up to 8 hrs post-dosing; format: ADME, organism-based; parameters: route intravenous, dose 2 mg/kg, time <=8; conditions: in vivo
# [4] = AUC(infinity) in C57BL/6 mouse at 2 mg/kg, iv measured up to 8 hrs post-dosing; format: ADME, organism-based; parameters: route intravenous, dose 2 mg/kg, time <=8; conditions: in vivo
# [5] = Half life in C57BL/6 mouse at 2 mg/kg, iv measured up to 8 hrs post-dosing; format: ADME, organism-based; conditions: in vivo
# [6] = Cmax in C57BL/6 mouse at 2 mg/kg, iv measured up to 8 hrs post-dosing; format: ADME, organism-based; parameters: route intravenous, dose 2 mg/kg, time <=8; conditions: in vivo
# [7] = AUC (extrapolated) in C57BL/6 mouse at 2 mg/kg, iv measured up to 8 hrs post-dosing; format: ADME, organism-based; conditions: in vivo
# T1 sequence (Q96SW2 whole entry, looked up): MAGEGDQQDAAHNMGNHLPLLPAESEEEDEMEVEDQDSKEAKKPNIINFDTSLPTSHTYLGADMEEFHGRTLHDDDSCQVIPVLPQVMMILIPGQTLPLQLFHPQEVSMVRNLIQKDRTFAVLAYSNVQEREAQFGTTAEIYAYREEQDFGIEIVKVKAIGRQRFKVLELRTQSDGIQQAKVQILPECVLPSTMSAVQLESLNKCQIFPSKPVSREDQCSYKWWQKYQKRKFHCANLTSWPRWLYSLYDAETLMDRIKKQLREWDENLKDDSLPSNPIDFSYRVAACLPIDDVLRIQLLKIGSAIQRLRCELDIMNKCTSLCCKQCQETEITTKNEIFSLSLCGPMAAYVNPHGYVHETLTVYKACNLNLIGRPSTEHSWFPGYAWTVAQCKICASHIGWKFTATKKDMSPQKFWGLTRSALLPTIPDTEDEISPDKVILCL
# T1 sequence (Q9NYV4 whole entry, looked up): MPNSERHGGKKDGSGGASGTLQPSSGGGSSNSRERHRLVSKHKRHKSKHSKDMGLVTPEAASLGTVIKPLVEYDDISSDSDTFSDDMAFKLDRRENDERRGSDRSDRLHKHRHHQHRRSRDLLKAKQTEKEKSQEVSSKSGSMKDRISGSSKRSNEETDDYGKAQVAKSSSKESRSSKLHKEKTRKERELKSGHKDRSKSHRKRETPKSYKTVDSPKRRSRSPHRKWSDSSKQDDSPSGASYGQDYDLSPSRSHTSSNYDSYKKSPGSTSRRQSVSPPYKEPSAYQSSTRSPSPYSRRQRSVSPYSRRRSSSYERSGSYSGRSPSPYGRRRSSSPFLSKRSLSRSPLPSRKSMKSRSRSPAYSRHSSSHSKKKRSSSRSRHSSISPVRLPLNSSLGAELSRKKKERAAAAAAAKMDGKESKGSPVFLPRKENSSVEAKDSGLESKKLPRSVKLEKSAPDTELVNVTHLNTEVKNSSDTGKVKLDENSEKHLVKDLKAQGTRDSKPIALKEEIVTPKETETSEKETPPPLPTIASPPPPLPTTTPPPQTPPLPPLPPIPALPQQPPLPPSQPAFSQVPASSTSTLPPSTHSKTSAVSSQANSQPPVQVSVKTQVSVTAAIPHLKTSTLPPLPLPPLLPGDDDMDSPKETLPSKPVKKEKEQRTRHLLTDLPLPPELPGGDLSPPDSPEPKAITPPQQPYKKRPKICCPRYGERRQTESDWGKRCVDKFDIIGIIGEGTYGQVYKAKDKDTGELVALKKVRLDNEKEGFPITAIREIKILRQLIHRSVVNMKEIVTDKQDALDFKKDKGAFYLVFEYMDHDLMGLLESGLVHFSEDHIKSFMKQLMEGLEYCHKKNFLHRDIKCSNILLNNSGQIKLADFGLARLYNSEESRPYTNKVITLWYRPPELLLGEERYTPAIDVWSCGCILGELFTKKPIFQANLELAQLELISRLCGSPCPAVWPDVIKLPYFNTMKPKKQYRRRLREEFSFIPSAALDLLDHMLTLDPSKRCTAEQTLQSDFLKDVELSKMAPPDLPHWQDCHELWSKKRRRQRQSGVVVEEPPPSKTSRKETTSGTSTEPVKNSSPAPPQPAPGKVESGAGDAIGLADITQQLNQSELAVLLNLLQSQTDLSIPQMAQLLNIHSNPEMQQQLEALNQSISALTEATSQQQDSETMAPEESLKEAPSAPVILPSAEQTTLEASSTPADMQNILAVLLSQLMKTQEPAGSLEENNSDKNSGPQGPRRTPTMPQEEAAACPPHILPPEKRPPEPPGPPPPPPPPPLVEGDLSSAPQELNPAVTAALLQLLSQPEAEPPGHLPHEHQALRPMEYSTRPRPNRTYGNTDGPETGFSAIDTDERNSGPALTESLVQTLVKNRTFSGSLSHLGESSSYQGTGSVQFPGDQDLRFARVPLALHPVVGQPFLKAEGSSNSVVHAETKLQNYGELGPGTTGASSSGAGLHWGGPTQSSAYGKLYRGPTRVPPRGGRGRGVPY
Compound,Activity [1] [%],Activity [2],further results
O=C(COc1cccc2c1C(=O)N(C1CCC(=O)NC1=O)C2=O)NCCCCCCN1CCC(C(=O)N2CCC[C@@H](Nc3ncc(Cl)c(-c4c[nH]c5ccccc45)n3)C2)CC1 (some centres not stated),80,,
O=C(COc1cccc2c1C(=O)N(C1CCC(=O)NC1=O)C2=O)NCCOCCOCCN1CCC[C@@H](Nc2ncc(Cl)c(-c3c[nH]c4ccccc34)n2)C1 (some centres not stated),,inactive,
O=C(COc1cccc2c1C(=O)N(C1CCC(=O)NC1=O)C2=O)NCCCCN1CCC[C@@H](Nc2ncc(Cl)c(-c3c[nH]c4ccccc34)n2)C1 (some centres not stated),,inactive,
O=C(COc1cccc2c1C(=O)N(C1CCC(=O)NC1=O)C2=O)NCCCN1CCN(c2ccc(C(=O)N3CCC[C@@H](Nc4ncc(Cl)c(-c5c[nH]c6ccccc56)n4)C3)cc2)CC1 (some centres not stated),60,,
O=C(COc1cccc2c1C(=O)N(C1CCC(=O)NC1=O)C2=O)NCCCCCC(=O)N1CCC[C@@H](Nc2ncc(Cl)c(-c3c[nH]c4ccccc34)n2)C1 (some centres not stated),,inactive,
O=C(COc1cccc2c1C(=O)N(C1CCC(=O)NC1=O)C2=O)NCCOCCOCCOCCN1CCC[C@@H](Nc2ncc(Cl)c(-c3c[nH]c4ccccc34)n2)C1 (some centres not stated),80,,
O=C(COc1cccc2c1C(=O)N(C1CCC(=O)NC1=O)C2=O)NCCCCCN1CCN(c2ccc(C(=O)N3CCC[C@@H](Nc4ncc(Cl)c(-c5c[nH]c6ccccc56)n4)C3)cc2)CC1 (some centres not stated),80,,
O=C(COc1cccc2c1C(=O)N(C1CCC(=O)NC1=O)C2=O)NCCOCCOCCC(=O)N1CCC[C@@H](Nc2ncc(Cl)c(-c3c[nH]c4ccccc34)n2)C1 (some centres not stated),,inactive,
O=C(COc1cccc2c1C(=O)N(C1CCC(=O)NC1=O)C2=O)NCCCCCCCN1CCN(c2cccc(C(=O)N3CCC[C@@H](Nc4ncc(Cl)c(-c5c[nH]c6ccccc56)n4)C3)c2)CC1 (some centres not stated),,inactive,

# Further lines, with some results ahead:
Activity [1] [%],Activity [2],Compound,further results
,inactive,O=C(COc1cccc2c1C(=O)N(C1CCC(=O)NC1=O)C2=O)NCCCCCN1CCC[C@@H](Nc2ncc(Cl)c(-c3c[nH]c4ccccc34)n2)C1 (some centres not stated),
90,,O=C(COc1cccc2c1C(=O)N(C1CCC(=O)NC1=O)C2=O)NCCCCCCCN1CCC[C@@H](Nc2ncc(Cl)c(-c3c[nH]c4ccccc34)n2)C1 (some centres not stated),
,inactive,Cc1ncsc1-c1ccc([C@H](C)NC(=O)[C@H]2C[C@H](O)CN2C(=O)[C@@H](NC(=O)CCCCCCCCCCN2CCC[C@@H](Nc3ncc(Cl)c(Nc4ccccc4S(=O)(=O)C(C)C)n3)C2)C(C)(C)C)cc1,
90,,Cc1ncsc1-c1ccc([C@H](C)NC(=O)[C@@H]2C[C@@H](O)CN2C(=O)[C@@H](NC(=O)CCOCCOCCOCCN2CCC[C@@H](Nc3ncc(Cl)c(Nc4ccccc4S(=O)(=O)C(C)C)n3)C2)C(C)(C)C)cc1,
80,,O=C(COc1cccc2c1C(=O)N(C1CCC(=O)NC1=O)C2=O)NCCCCCCN1CCC[C@@H](Nc2ncc(Cl)c(-c3c[nH]c4ccccc34)n2)C1 (some centres not stated),
90,,CC(C)S(=O)(=O)c1ccccc1Nc1nc(N[C@@H]2CCCN(CCCCCCCNC(=O)COc3cccc4c3C(=O)N(C3CCC(=O)NC3=O)C4=O)C2)ncc1Cl (some centres not stated),
80,,O=C(COc1cccc2c1C(=O)N(C1CCC(=O)NC1=O)C2=O)NCCCCCCCN1CCC(C(=O)N2CCC[C@@H](Nc3ncc(Cl)c(-c4c[nH]c5ccccc45)n3)C2)CC1 (some centres not stated),
90,,Cc1ncsc1-c1ccc([C@H](C)NC(=O)[C@@H]2C[C@@H](O)CN2C(=O)[C@@H](NC(=O)CCCCCCCCCCN2CCC[C@@H](Nc3ncc(Cl)c(Nc4ccccc4S(=O)(=O)C(C)C)n3)C2)C(C)(C)C)cc1,AUC(0-t) at 8 h [3]: 5720 ng·h/mL and 5.61 µM·h; AUC(0-inf) [4]: 6140 ng·h/mL; half-life [5]: 2.21 h; Cmax [6]: 4570 ng/mL and 4.49 µM; %AUCextra [7]: 6.27%
